30 molecules from patent US9546164B2 (GENENTECH, INC., priority 2013, dated 2017) can be followed below.

pIC50: −log10 of the molar value. Structures can show the parent of a compound that is named as a salt.

Chain of hNav1.7 (Q15858 other isoform, or with tags, fused parts or gaps): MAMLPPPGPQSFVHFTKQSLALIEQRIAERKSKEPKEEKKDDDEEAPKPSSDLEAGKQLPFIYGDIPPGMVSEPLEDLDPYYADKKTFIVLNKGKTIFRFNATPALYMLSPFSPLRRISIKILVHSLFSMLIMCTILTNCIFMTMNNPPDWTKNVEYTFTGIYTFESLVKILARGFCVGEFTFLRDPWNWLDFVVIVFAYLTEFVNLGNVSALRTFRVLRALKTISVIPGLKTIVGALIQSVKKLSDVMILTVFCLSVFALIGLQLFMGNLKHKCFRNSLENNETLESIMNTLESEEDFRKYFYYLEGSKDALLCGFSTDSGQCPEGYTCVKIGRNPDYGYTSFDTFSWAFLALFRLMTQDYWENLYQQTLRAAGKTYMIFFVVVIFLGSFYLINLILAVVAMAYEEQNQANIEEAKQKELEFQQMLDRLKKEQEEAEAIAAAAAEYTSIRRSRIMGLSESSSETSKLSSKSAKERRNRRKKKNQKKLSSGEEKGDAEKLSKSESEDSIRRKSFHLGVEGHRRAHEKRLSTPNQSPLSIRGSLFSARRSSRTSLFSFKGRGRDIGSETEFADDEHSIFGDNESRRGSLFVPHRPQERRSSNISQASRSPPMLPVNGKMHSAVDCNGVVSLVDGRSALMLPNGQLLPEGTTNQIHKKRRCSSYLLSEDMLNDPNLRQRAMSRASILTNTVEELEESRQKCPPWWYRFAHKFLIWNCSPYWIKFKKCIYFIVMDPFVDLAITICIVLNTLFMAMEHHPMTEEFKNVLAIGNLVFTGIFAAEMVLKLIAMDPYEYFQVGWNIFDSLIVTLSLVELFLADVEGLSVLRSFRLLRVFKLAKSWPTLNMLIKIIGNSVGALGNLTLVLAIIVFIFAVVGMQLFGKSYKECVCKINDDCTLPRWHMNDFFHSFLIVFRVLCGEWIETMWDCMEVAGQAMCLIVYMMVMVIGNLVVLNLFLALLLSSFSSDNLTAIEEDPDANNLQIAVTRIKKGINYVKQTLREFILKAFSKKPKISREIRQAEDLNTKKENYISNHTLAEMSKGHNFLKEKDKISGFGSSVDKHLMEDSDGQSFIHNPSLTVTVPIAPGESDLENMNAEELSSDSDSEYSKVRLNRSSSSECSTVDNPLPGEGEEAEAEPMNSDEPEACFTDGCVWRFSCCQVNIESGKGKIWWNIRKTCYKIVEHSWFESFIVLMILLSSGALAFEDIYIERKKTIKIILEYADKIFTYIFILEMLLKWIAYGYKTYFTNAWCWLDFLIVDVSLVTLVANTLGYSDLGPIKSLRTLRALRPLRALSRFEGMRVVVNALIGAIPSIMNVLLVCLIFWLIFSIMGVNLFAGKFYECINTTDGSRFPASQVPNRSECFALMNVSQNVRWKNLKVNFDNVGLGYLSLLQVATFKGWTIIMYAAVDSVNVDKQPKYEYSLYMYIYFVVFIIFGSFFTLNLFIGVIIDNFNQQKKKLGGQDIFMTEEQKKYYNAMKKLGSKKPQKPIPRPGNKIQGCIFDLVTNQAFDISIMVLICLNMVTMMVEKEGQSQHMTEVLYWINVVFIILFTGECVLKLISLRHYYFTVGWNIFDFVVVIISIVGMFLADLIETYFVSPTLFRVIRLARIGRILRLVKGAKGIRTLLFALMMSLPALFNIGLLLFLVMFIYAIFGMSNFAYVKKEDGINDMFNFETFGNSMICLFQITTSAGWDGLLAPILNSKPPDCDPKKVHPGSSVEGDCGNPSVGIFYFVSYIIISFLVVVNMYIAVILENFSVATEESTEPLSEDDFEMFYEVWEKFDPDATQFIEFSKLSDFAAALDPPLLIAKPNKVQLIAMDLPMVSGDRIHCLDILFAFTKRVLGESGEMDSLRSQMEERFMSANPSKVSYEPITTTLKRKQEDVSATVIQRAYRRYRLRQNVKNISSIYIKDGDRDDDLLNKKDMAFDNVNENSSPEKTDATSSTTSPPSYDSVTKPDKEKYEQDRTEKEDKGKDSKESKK
Chain of hNav1.7 (Q07699 19-218 partner): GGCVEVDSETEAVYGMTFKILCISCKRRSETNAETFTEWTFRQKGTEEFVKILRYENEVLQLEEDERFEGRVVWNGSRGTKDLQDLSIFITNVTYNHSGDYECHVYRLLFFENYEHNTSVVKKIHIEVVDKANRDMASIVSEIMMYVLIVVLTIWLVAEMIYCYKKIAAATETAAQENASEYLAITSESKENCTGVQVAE

The first assay has as its target hNav1.7 (Homo sapiens (Human), UniProt Q15858). Nature of the assay: Tritiated sulfonamide competitive binding to membranes from cells expressing hNav1.7 and the β1 subunit.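 Note: Filter-bound radioactivity counted by liquid scintillation, nonspecific binding defined with excess unlabelled ligand, IC50 fitted to percent inhibition of specific binding.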
Conditions: not given
In the case of `O=C(NS(=O)(=O)C1CC1)c1cc(C2CC2)c(O[C@@H]2CCCN(c3cc(Cl)cc(Cl)c3)C2)cc1F` [Example 42, (R)-5-cyclopropyl-N-(cyclopropylsulfonyl)-4-((1-(3,5-dichlorophenyl)piperidin-3-yl)oxy)-2-fluorobenzamide], the pIC50 was 8.68.
Still for that read-out and setting: the figure for `O=C(NS(=O)(=O)C1CC1)c1cc(C2CC2)c(CN2CCC(Oc3cc(Cl)cc(OC(F)(F)F)c3)CC2)cc1F` [Example 549, 4-((4-(3-chloro-5-(trifluoromethoxy)phenoxy)piperidin-1-yl)methyl)-5-cyclopropyl-N-(cyclopropylsulfonyl)-2-fluorobenzamide, trifluoroacetic acid salt] is 8.36.
The same measure, in the same setting: the figure for `C[C@H]1CN(Cc2cc(F)c(C(=O)NS(=O)(=O)C3CC3)cc2C2CC2)CCN1[C@@H](C)c1cc(Cl)cc(Cl)c1` [Example 568, 5-cyclopropyl-N-(cyclopropylsulfonyl)-4-(((S)-4-((S)-1-(3,5-dichlorophenyl)ethyl)-3-methylpiperazin-1-yl)methyl)-2-fluorobenzamide] is 8.02.
The same measure, in the same setting: the same measure for `CS(=O)(=O)NC(=O)c1cc(C2CC2)c(CN2CCC(CF)(c3ccc(F)cc3)CC2)cc1F` [Example 513, 5-cyclopropyl-2-fluoro-4-((4-(fluoromethyl)-4-(4-fluorophenyl)piperidin-1-yl)methyl)-N-(methylsulfonyl)benzamide, trifluoroacetic acid salt]: 7.16; for `C[C@@H]1CN(Cc2cc(F)c(C(=O)NS(=O)(=O)C3CC3)cc2C2CC2)CCN1[C@H](C)c1cc(Cl)cc(Cl)c1` [Example 570, 5-cyclopropyl-N-(cyclopropylsulfonyl)-4-(((R)-4-((R)-1-(3,5-dichlorophenyl)ethyl)-3-methylpiperazin-1-yl)methyl)-2-fluorobenzamide]: 8.54; for `CC(C)(c1cccc(Cl)c1)N1CCC[C@@H](Oc2cc(F)c(C(=O)NS(C)(=O)=O)cc2C2CC2)C1` [Example 529, (R)-4-((1-(2-(3-chlorophenyl)propan-2-yl)piperidin-3-yl)oxy)-5-cyclopropyl-2-fluoro-N-(methylsulfonyl)benzamide, trifluoroacetic acid salt]: 8.62.
The molecule `CS(=O)(=O)NC(=O)c1cc(C2CC2)c(CN2CCC(OCc3cc(Cl)cc(Cl)c3)CC2)cc1F` [Example 511, 5-cyclopropyl-4-((4-((3,5-dichlorobenzyl)oxy)piperidin-1-yl)methyl)-2-fluoro-N-(methylsulfonyl)benzamide, trifluoroacetic acid salt] had a pIC50 of 7.63.
On the same count and under the same terms, the same measure for `O=C(NS(=O)(=O)C1CC1)c1cc(C2CC2)c(O[C@@H]2CCCN(Cc3ccc(F)cc3F)C2)cc1F` [Example 9, (R)-5-cyclopropyl-N-(cyclopropylsulfonyl)-4-((1-(2,4-difluorobenzyl)-piperidin-3-yl)oxy)-2-fluorobenzamide]: 8.46.

The assay is the same for the next values; noted with them: read-out: Ligand Binding Assay; 100 pM [3H]compound, membranes with hNav1.7 and β1 subunit, 18 h, room temperature.
As for `CC(c1cccc(Cl)c1)N1CCC(COc2cc(F)c(C(=O)NS(C)(=O)=O)cc2C2CC2)CC1` (stereo not drawn) [Example 148, 4-((1-(1-(3-Chlorophenyl)ethyl)piperidin-4-yl)methoxy)-5-cyclopropyl-2-fluoro-N-(methylsulfonyl)benzamide], the pIC50 was 7.82.
Same read-out and setting: the figure for `CS(=O)(=O)NC(=O)c1cc(C2CC2)c(OCC2CCN(S(=O)(=O)c3ccc(Br)c(F)c3)CC2)cc1F` [Example 368, 4-((1-((4-bromo-3-fluorophenyl)sulfonyl)piperidin-4-yl)methoxy)-5-cyclopropyl-2-fluoro-N-(methylsulfonyl)benzamide] is 7.60.
Regarding `C[C@@H](c1cc(Cl)cc(Cl)c1)N1CCC(C#N)(COc2cc(F)c(C(=O)NS(C)(=O)=O)cc2C2CC2)CC1` [Example 598], the pIC50 was 6.59.
On the same count and under the same terms, the figure for `CCS(=O)(=O)NC(=O)c1cc(C2CC2)c(OC[C@@H]2CC[C@@H](C)N([C@H](C)c3cc(Cl)cc(Cl)c3)C2)cc1F` [Example 345, 5-cyclopropyl-4-(((3R,6R)-1-((R)-1-(3,5-dichlorophenyl)ethyl)-6-methylpiperidin-3-yl)methoxy)-N-(ethylsulfonyl-2-fluorobenzamide, trifluoroacetic acid salt] is 8.11.
`CCS(=O)(=O)NC(=O)c1cc(C2CC2)c(OCC2CCN(C3(c4cc(Cl)cc(Cl)c4)COC3)CC2)cc1F` [Example 177, 5-Cyclopropyl-4-((1-(3-(3,5-dichlorophenyl)oxetan-3-yl)piperidin-4-yl)methoxy)-N-(ethylsulfonyl)-2-fluorobenzamide]: the pIC50 was 8.08.
Still for that read-out and setting: the same measure for `C[C@@H](c1cc(Cl)cc(Cl)c1)N1CC(COc2cc(F)c(C(=O)NS(C)(=O)=O)cc2C2CC2)C1` [Example 120, (S)-5-Cyclopropyl-4-((1-(1-(3,5-dichlorophenyl)ethyl)azetidin-3-yl)methoxy)-2-fluoro-N-(methylsulfonyl)benzamide]: 7.69; for `CS(=O)(=O)NC(=O)c1cc(C2CC2)c(OCC2CCN([C@H](CO)c3cc(Cl)cc(Cl)c3)CC2)cc1F` [Example 267, (S)-5-cyclopropyl-4-((1-(1-(3,5-dichlorophenyl)-2-hydroxyethyl)piperidin-4-yl)methoxy)-2-fluoro-N-(methylsulfonyl)benzamide]: 7.33; for `O=C(NS(=O)(=O)C1CC1)c1cc(C2CC2)c(CN2CCC(Oc3ncc(Br)cc3Cl)CC2)cc1F` [Example 473, 4-((4-((5-bromo-3-chloropyridin-2-yl)oxy)piperidin-1-yl)methyl)-5-cyclopropyl-N-(cyclopropylsulfonyl)-2-fluorobenzamide, trifluoroacetic acid salt]: 8.02.
On the same count and under the same terms, the figure for `O=C(NS(=O)(=O)N1CCC1)c1cc(C2CC2)c(O[C@@H]2CCCN(c3ccccn3)C2)cc1F` [Example 493, (R)—N-(azetidin-1-ylsulfonyl)-5-cyclopropyl-2-fluoro-4-((1-(pyridin-2-yl)piperidin-3-yl)oxy)benzamide] is 6.61.
Turning to `C[C@H](c1ccc(Cl)cc1Cl)N1CCC(C)(COc2cc(F)c(C(=O)NS(C)(=O)=O)cc2C2CC2)CC1` [Example 281, (R)-5-cyclopropyl-4-((1-(1-(2,4-dichlorophenyl)ethyl)-4-methylpiperidin-4-yl)methoxy)-2-fluoro-N-(methylsulfonyl)benzamide], the pIC50 was 8.33.
Regarding `CS(=O)(=O)NC(=O)c1cc(C2CC2)c(OC[C@@H]2CCCN(Cc3cc(Cl)cc(Cl)c3)C2)cc1F` [Example 334, (R)-5-cyclopropyl-4-((1-(3,5-dichlorobenzyl)piperidin-3-yl)methoxy)-2-fluoro-N-(methylsulfonyl)benzamide], the pIC50 was 8.15.
Same read-out and setting: the same measure for `CC1(COc2cc(F)c(C(=O)NS(C)(=O)=O)cc2C2CC2)CCN(C2(c3cc(Cl)cc(Cl)c3)COC2)CC1` [Example 178, 5-Cyclopropyl-4-((1-(3-(3,5-dichlorophenyl)oxetan-3-yl)-4-methylpiperidin-4-yl)methoxy)-2-fluoro-N-(methylsulfonyl)benzamide]: 8.12.
Take `CS(=O)(=O)NC(=O)c1cc(C2CC2)c(O[C@@H]2CCCN(Cc3cc(Cl)cc(Cl)c3)C2)cc1F` [Example 440]: the pIC50 was 9.52.
Take `C[C@@H](c1cc(F)cc(Cl)c1)N1CCC(COc2cc(F)c(C(=O)NS(C)(=O)=O)cc2C2CC2)CC1` (single isomer, unassigned) [Example 231]: the pIC50 is 8.23.
On the same count and under the same terms, the same measure for `CS(=O)(=O)NC(=O)c1cc(C2CC2)c(OCC2CCN(Cc3cc(Cl)c(F)c(Cl)c3)CC2)cc1F` [Example 454, 5-cyclopropyl-4-((1-(3,5-dichloro-4-fluorobenzyl)piperidin-4-yl)methoxy)-2-fluoro-N-(methylsulfonyl)benzamide, trifluoroacetic acid salt]: 8.30.
On to `COC[C@@H](c1ccccc1)N1CCC(COc2cc(F)c(C(=O)NS(C)(=O)=O)cc2C2CC2)CC1` [Example 222, (R)-5-cyclopropyl-2-fluoro-4-((1-(2-methoxy-1-phenylethyl)piperidin-4-yl)methoxy)-N-(methylsulfonyl)benzamide], for which the pIC50 was 6.80.
The same measure, in the same setting: the same measure for `O=C(NS(=O)(=O)N1CCC1)c1cc(C2CC2)c(OCC2CC3CCC(C2)N3Cc2ccccc2)cc1F` (stereo not drawn) [Example 48, N-(azetidin-1-ylsulfonyl)-4-((8-benzyl-8-azabicyclo[3.2.1]octan-3-yl)methoxy)-5-cyclopropyl-2-fluorobenzamide]: 5.55; for `CS(=O)(=O)NC(=O)c1cc(C2CC2)c(OCC2CCN(Cc3cc(Cl)cc(Cl)c3)CC2)cc1F` [Example 139, 5-Cyclopropyl-4-((1-(3,5-dichlorobenzyl)piperidin-4-yl)methoxy)-2-fluoro-N-(methylsulfonyl)benzamide]: 8.31; for `CS(=O)(=O)NC(=O)c1cc(C2CC2)c(OC[C@@H]2CCCN(Cc3ccc(F)cc3Cl)C2)cc1F` [Example 332, (R)-4-((1-(2-chloro-4-fluorobenzyl)piperidin-3-yl)methoxy)-5-cyclopropyl-2-fluoro-N-(methylsulfonyl)benzamide]: 7.45.
Same read-out and setting: the same measure for `C[C@H]1CC[C@@H](Oc2cc(F)c(C(=O)NS(=O)(=O)N3CCC3)cc2C2CC2)CN1Cc1ccc(F)cc1Cl` [Example 325, N-(azetidin-1-ylsulfonyl)-4-(((3R,6S)-1-(2-chloro-4-fluorobenzyl)-6-methylpiperidin-3-yl)oxy)-5-cyclopropyl-2-fluorobenzamide]: 8.62; for `CS(=O)(=O)NC(=O)c1cc(C2CC2)c(OCC2CCN(Cc3ccc(Cl)c(Cl)c3)CC2)cc1F` [Example 147, 5-Cyclopropyl-4-((1-(3,4-dichlorobenzyl)piperidin-4-yl)methoxy)-2-fluoro-N-(methylsulfonyl)benzamide]: 8.22; for `O=C(NS(=O)(=O)C1CC1)c1cc(C2CC2)c(OC[C@H]2CCCN(Cc3ccc(F)cc3Cl)C2)cc1F` [Example 340, (S)-4-((1-(2-chloro-4-fluorobenzyl)piperidin-3-yl)methoxy)-5-cyclopropyl-N-(cyclopropylsulfonyl)-2-fluorobenzamide, trifluoroacetic acid salt]: 8.33.
